One experiment has as its target T1, PR-3 (Homo sapiens, UniProt P24158).
T1 construct: tissue Athens Research and Technology
T1 sequence (P24158 28-248 limits assumed): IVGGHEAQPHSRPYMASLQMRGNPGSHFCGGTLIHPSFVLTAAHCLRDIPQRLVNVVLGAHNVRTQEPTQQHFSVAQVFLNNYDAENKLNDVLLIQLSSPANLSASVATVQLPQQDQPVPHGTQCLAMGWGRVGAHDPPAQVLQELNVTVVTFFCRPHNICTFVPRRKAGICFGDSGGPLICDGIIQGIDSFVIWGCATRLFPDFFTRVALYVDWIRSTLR
The experiment can be described thus: Inhibition of the proteolytic activity of PR-3 by PMSF (cleavage of 125I-IL-32). It is filed as biochemical. To be noted: PR-3 pre-incubated with PMSF 1 mM, 10 min at 37° C.; then 1 and 5 min with 125I-IL-32. As to the method:
Lanes 1-4 show ^125I-IL-32 following incubation with urinary PR-3 for 1 and 5 min., either not treated (Lanes 1 and 2) or pre-treated with PMSF (Lanes 3 and 4). Lanes 7-10 show ^125I-IL-32 following incubation with commercial PR-3 for 1 and 5 min., either not treated (Lanes 9 and 10) or pre-treated with PMSF (Lanes 7 and 8). Molecular weight markers (in kDa; lane 5) are indicated at the right side.
The experiment presented in FIG. 6 was performed as described in examples 5 and 6, except that PR-3 was pre-incubated with PMSF (final concentration of 1 mM, 10 min at 37° C.) prior to the incubation with ^125I-IL-32.

Another experiment relates to IL-32 responsive cells. The experiment can be described thus: Biological activity of IL-32 and its proteolytic fragments (summary statement referring to Example 8). It is filed as cell-based. The note with it: action of PMSF. The text has this: The cleavage of IL-32 and the consequent enhancement of the biological activity were both blocked by the action of PMSF.
For the purpose of the present description the expression “biological activity of IL-32” refers inter alia to at least one of the following biological properties:
(i) induction of MIP-2, (ii) induction of TNF, and (iii) induction of IL-8.

The structures appear in SMILES notation. Entries after “also recorded” stand apart in the source; their conditions may differ.

The values that follow come from patent publication US9045559B2, “Method for screening inhibitors of interleukin-32 (IL-32)” (Yeda Research and Development Co. Ltd, priority 2005, dated 2015).

On to `O=S(=O)(F)Cc1ccccc1` [PMSF, phenyl methyl sulfonyl fluoride], for which, at PR-3, the “cleavage of IL-32 by urinary and commercial PR-3” value is “completely abolished; also recorded: completely blocked”. Moreover, the “enhancement of the biological activity of IL-32 following cleavage by PR-3” value with IL-32 responsive cells was “blocked”.
